Results from patent US10888547B2, “Amorphous and a crystalline form of genz 112638 hemitartrate as inhibitor of glucosylceramide synthase” (Genzyme Corporation, priority 2009, dated 2021).

Tests used:
[1] = both, human, in vivo
From the text: This was an open-label, fixed-sequence study in 36 healthy subjects (17 males and 19 females).

[2] = system: Gaucher disease type 1 (GD1) patients; test: Phase 2 clinical trial in adults with Gaucher disease type 1; format: in vivo, human; settings: 50 or 100 mg bid orally
Procedure: Patients were to have splenomegaly (volume […]) and either thrombocytopenia (platelets 45,000-100,000/mm^3) or anemia (hemoglobin 8-10 g/dl, female; 8-11 g/dl, male). None received enzyme replacement or substrate reduction therapy in the prior 12 months. The composite primary efficacy endpoint is […] (+0.5 g/dl) or platelet count (+15%) after 52 weeks of treatment. Liver volume, chitotriosidase, glucosylceramide are also assessed. Patients continue to be treated and monitored long-term.

[3] = Aqueous solubility; format: physicochemical; settings: in water
[4] = system: Gaucher mice (D409V/null); test: Separate and sequential enzyme and substrate reduction therapy in Gaucher mice; format: in vivo, mouse
From the text: Procedures involving animals were reviewed and approved by the Institutional Animal Care and Use Committee (IACUC) at Genzyme Corporation following the guidelines issued by the Association for Assessment and Accreditation of Laboratory Animal Care (AAALAC). […] The study had 6 groups of mice with group A being sacrificed after 2 weeks to provide baseline levels of tissue glucosylceramide. Groups B, C, and D all received recombinant human glucocerebrosidase (Genzyme Corp., Cambridge, Mass.) (10 mg/kg) intravenously via a tail-vein (100 μL) every 2 days for a total of 8 injections. Group B was sacrificed at the end of this regimen (at the same time as group A) to provide enzyme-reduced levels of tissue glucosylceramide. Groups D and E were both fed Formula (I) Hemitartrate (Genzyme Corp., Cambridge, Mass.) as a component of the pellet food diet. The drug was formulated at 0.075% (w/w) in standard 5053 mouse chow (TestDiet, Richmond, Ind.) and provided ad libitum. […] Group F received no treatment and was sacrificed along with groups C, D and E 12 weeks after the start of the study. Food consumption and mouse weights were monitored three times per week to determine drug intake and the potential impact of the drug on overall health. Animals were killed by carbon dioxide inhalation and their tissues harvested immediately. Half of each tissue was snap frozen on dry ice and stored at −80° C. until ready for further processing. The other half was processed for histological analysis.
Glucosylceramide levels were quantified by mass spectrometry as described previously (see K. McEachern, et al., J. Gene. Med. 8 (2006) 719-729; T. Doering, J. Biol. Chem. 274 (1999) 11038-11045, the entire teachings of both are incorporated herein by reference). A known mass of tissue was homogenized in 2:1 (v/v) chloroform:methanol and incubated at 37° C. for 15 min. Samples were centrifuged and the supernatants were extracted with 0.2 volumes of water overnight at 4° C. The samples were centrifuged, the aqueous phase was discarded, and the organic phase was dried down to a film under nitrogen. For electrospray ionization mass spectrometry (ESI/MS) analysis, tissue samples were reconstituted to the equivalent of […] original tissue weight in 1 ml chloroform:methanol (2:1, v/v) and vortexed for 5 min. Aliquots (40 μL) of each sample were delivered to Waters total recovery vials and 50 μL of a 10 μg/mL d3-C16-GL-1 internal standard (Matreya, Inc., Pleasant Gap, Pa.) was added. Samples were dried under nitrogen and reconstituted with 200 μL of 1:4 (v/v) DMSO:methanol. ESI/MS analysis of glucosylceramides of different carbon chain lengths was performed on a Waters alliance HPLC (Separation Module 2695) coupled to a Micromass Quattro Micro system equipped with an electrospray ion source. Lipid extract samples (20 μL) were injected onto a C8 column ([…] i.d; Phenomenex, Torrance, Calif.) at 45° C. and eluted with a gradient of 50 to 100% acetonitrile (2 mM ammonium acetate, 0.1% formic acid) at 0.5 mL/min. The first 0.5 min. was held at 50% organic and then quickly switched to 100% for the final 3.5 min. The source temperature was held constant at 150° C. and nitrogen was used as the desolvation gas at a flow rate of 670 L/h. The capillary voltage was maintained at 3.80 KV with a cone voltage of 23 V, while the dwell time for each ion species was 100 ms. Spectra were acquired by the MRM mode to monitor eight dominant isoforms (C16:0, C18:0, C20:0, C22:1, C22:0, C22:1-OH, C24:1, and C24:0). Quantitation of glucosylceramide was based on the sum of these eight isoforms relative to the internal standard, with a calibration curve ranging from 0.1 to 10 μg/mL.
For histological analysis, tissues were fixed in zinc formalin (Electron Microscopy Sciences, Hatfield, Pa.) at room temperature for 24 h, then stored in PBS at 4° C. until ready for further processing. […]

[5] = Hygroscopicity of salts and free base; format: physicochemical
[6] = group D: 2 weeks enzyme, then 150 mg/kg/day in food for 10 weeks
[7] = group E: 150 mg/kg/day in food alone for 12 weeks

## CCCCCCCC(=O)N[C@H](CN1CCCC1)[C@H](O)c1ccc2c(c1)OCCO2 [Formula (I) Hemitartrate]
[1]
  accumulation in AUC, repeated versus single dose administration: 2 fold
  accumulation in Cmax, repeated versus single dose administration: 2 fold
  increase in AUC with concomitant paroxetine versus multiple-dose alone: 9 fold
  increase in Cmax with concomitant paroxetine versus multiple-dose alone: 7 fold
[2]
  tolerability and safety profile: well tolerated
[2]; 52 weeks
  composite primary endpoint met (hemoglobin +0.5 g/dl or platelet count +15%): 19 of the 20
[2]; Week 52
  mean (SD) change from baseline in chitotriosidase: -49.9%
  mean (SD) change from baseline in liver volume (multiples of normal): -15.8%
  mean (SD) change from baseline in platelet count: +43.6% (137.59%)
  mean (SD) change from baseline in spleen volume (multiples of normal): -40.2%
[2]; all mild and transient
  related adverse events: Seven related adverse events in 6 patients
[2]; all patients
  time after which plasma glucosylceramide levels normalized: 4 weeks
[3]
  Aqueous solubility: >216 mg/mL
[3]; listed as Formula I Hemitartrate
  Aqueous solubility: over 300 mg/mL
[4]; 2 weeks enzyme, then substrate reduction therapy for 10 weeks
  liver histopathology, CD68-positive Gaucher cells: increase in Gaucher cells was negated
[4]; chow containing 150 mg/kg/day
  weight gain versus regular chow: no discernible differences in weight gain
[4]; drug alone for 12 weeks
  liver histopathology, CD68-positive Gaucher cells: reduced accumulation of the substrate
[4]; group D: 2 weeks enzyme, then 150 mg/kg/day in chow for 10 weeks
  lung GL1 levels versus untreated controls (F): significantly lower
[4]; [6]
  liver GL1 levels versus untreated controls (F): significantly lower
  splenic GL1 levels versus untreated control (F): significantly lower
[4]; [7]
  liver GL-1 levels versus untreated, age-matched controls (F): the difference was not significant
  pulmonary GL1 levels versus untreated controls (F): effective in lowering pulmonary GL1 levels
  splenic GL1 levels versus untreated controls (F): the difference was not significant
[5]; 40° C./75% RH
  Hygroscopicity (40° C./75% RH): None
[5]; salt screen, Example 1, listed as hemitartrate (1 salt: 2 Formula I)
  hygroscopicity of the solid salt: non-hygroscopic
